Results as given in patent US20070099879A1 (priority 2005, published 2007).
“Also recorded” adds a separate entry of the source.

What was measured:
retinal EC [1] = assay: Retinal EC wound migration assay; type: cell-based, mouse; conditions: 10 μM calcitriol, 0, 24 and 48 hours
Experimental: (§1) Retinal EC migration was determined using both wound migration and transwell assays. […] Wound closure was monitored by phase microscopy, and digital images were obtained at different time points used for quantitative assessment of migration. For transwell migration, wells (8 μm pore size, 6.5 mm membrane; Costar) were coated with Matrigel™ (200 μg/ml) or fibronectin (2 μg/ml) in PBS on the bottom side at 4° C. overnight. The next day, inserts were rinsed with PBS, blocked in PBS containing 2% BSA for 1 h at room temperature, and washed with PBS. Cells were removed by trypsin-EDTA, counted, and resuspended at 1×10^6 cells/ml in serum-free medium. Inserts were placed in 24-well dishes (Costar) containing 0.5 ml of serum-free medium and 0. 1 ml of cell suspension was then added to the top of the insert. Cells were allowed to migrate through the filter for 3 h in a tissue culture incubator. After incubation, the cells on the top of the filter were scraped off using a cotton swab; the membrane was then fixed in 4% paraformaldehyde and stained with hematoxylin and eosin. The inserts were then mounted on a slide cell side up, and the number of cells which migrated to the bottom of the filter was determined by counting 10 high power fields at X200 magnification.

VEGF = assay: Western blot of VEGF in whole eye extracts of P15 mice during OIR; type: in vivo, mouse
Experimental: Vascular endothelial growth factor (VEGF) levels were determined by Western blotting of whole eye extracts prepared from P15 mice during OIR (5 days of hyperoxia and 3 days of normoxia) when maximum levels of VEGF were expressed (Wang S, et al. Attenuation of Retinal Vascular Development and Neovascularization during Oxygen-Induced Ischemic Retinopathy in Bcl-2 -/- Mice. Developmental Biol. 2005;279:205-219). Mice were euthanized by CO2 inhalation, then eyes from 2 or 3 mice dissected, homogenized in 0.2 ml of RIPA buffer, 10 mM HEPES pH 7.6, 142.5 mM KCl, 1% NP-40, and protease inhibitor cocktail, (Roche Applied Science, Indianapolis, Ind.), sonicated briefly, and incubated at 4° C. for 20 min. […] Supernatants were transferred to a clean tube, and protein concentrations were determined using the DC Protein Assay (Bio-Rad Laboratories, Hercules, Calif., Cat. No. 500-011 1). Approximately 20 μg of protein from the centrifuged homogenates were analyzed by SDS-PAGE (4-20% Tris-Glycin gel, Invitrogen, Carlsbad, Calif.) under reducing conditions and transferred to a nitrocellulose membrane. […] For quantitative assessments, the band intensities relative to loading controls were determined by scanning the blots using the Molecular Dynamics Storm 860 Scanner and Image Quant Software (Amersham Biosciences, Piscataway, N.J.).

[2] = test system: retinal neovascularization; assay: Mouse oxygen-induced ischemic retinopathy (OIR) model, retinal neovascularization; type: in vivo; conditions: for inhibition of neovascularization: P17 mice
Experimental: All experimental procedures involving animals were performed according to the ARVO Statement for the Use of Animals in Ophthalmic and Vision Research. […] In this model, 7-day-old (P7) pups (8-10 pups) and their mother were placed in an airtight incubator and exposed to an atmosphere of 75±0.5% oxygen (hyperoxia) for 5 days. Incubator temperature was maintained at 23±2° C., and oxygen was continuously monitored with a PROOX model 110 oxygen controller (Reming Bioinstruments Co., Redfield, N.Y.). Mice were then brought to room air for 5 days. Maximum retinal neovascularization occurred from P12 to P17. […] The other half of the littermates was injected with 0.1 ml of mineral oil. Generally one eye from each mouse was used for histochemical analysis and the other eye for histological evaluation as outlined below. These experiments were repeated at least 3 times for each dose.
Briefly, P17 mouse eyes were enucleated and briefly fixed in 4% paraformaldehyde in phosphate buffered saline (PBS) (10 min on ice). The paraformaldehyde fixed eyes were then fixed in 70% ethanol for at least 24 h at −20° C. Retinas were dissected in PBS and then washed with PBS 3 times, 10 min each. Following incubation in blocking buffer (50% fetal calf serum, 20% normal goat serum (NGS) in PBS) for 2h, the retinas were incubated with rabbit anti-mouse collagen IV (Chemicon, diluted 1:500 in PBS containing 20% fetal calf serum, 20% normal goat serum) at 4° C. overnight. Retinas were then washed 3 times with PBS, 10 min each, incubated with a secondary antibody Alexa 594-labeled goat-anti-rabbit (Invitrogen, Carlsbad, Calif.), at 1:500 dilution prepared in PBS containing 20% FCS, 20% NGS for 2 h at room temperature, washed 4 times with PBS (30 min each), and mounted on a slide with PBS/glycerol (2vol/1vol). Retinas were viewed by fluorescence microscopy, and images were captured in digital format using a Zeiss microscope (Carl Zeiss, Chester, Va.).
Quantification of retinal neovascularization on P17 was performed by counting vascular cell nuclei anterior to the […] (Wang S, et al., Attenuation of Retinal Vascular Development and Neovascularization during Oxygen-Induced Ischemic Retinopathy in Bcl-2 -/- Mice. Developmental Biol. 2005;279:205-219). Briefly, mice eyes were enucleated, fixed in formalin for 24 h, and embedded in paraffin. Serial sections (6 μm), each separated by at least 40 μm, were taken from around the region of the optic nerve. The hematoxylin- and PAS-stained sections were examined in masked fashion, by two independent observers without the knowledge of the samples identity, the presence of neovascular tufts projecting into the vitreous from the retina. […]

[3] = test system: retinal endothelial cells; assay: Retinal endothelial cell capillary morphogenesis in Matrigel; type: cell-based, mouse; conditions: 10 μM calcitriol, 18 h
Experimental: The ability of the cultured retinal endothelial cells to form capillary like networks was assessed on Matrigel™ (B D Biosciences, San Jose, Calif.). The capillary morphogenesis assays in Matrigel™ were performed as previously described (Su X, et al., Isolation and characterization of murine retinal endothelial cells. Mol Vision. 2003;9:171-178; Rothermel T A, et al., Polyoma virus middle-T-transformed PECAM-1 deficient mouse brain endothelial cells proliferate rapidly in culture and form hemangiomas in mice. J Cell Physiol. 2005;202:230-239). Briefly, 0.5 ml of Matrigel™ was added to a cold 35 mm tissue culture plate and incubated at 37° C. for at least 30 min to allow the Matrigel™ to harden. […] Cultures were monitored for 6-48 h, and images were captured in digital format after 18 h when maximum organization was observed. […] The capillary network formed by control cells began to fall apart at 24-48 h.

retinal EC [4] = assay: Retinal EC transwell migration assay; type: cell-based, mouse; conditions: 10 μM calcitriol, 3 h
Experimental: as §1, with “Cells were allowed to migrate through the filter for 3 h in a tissue culture incubator. After incubation, the cells on the top of the filter were scraped off using a cotton swab; the membrane was then fixed in 4% paraformaldehyde and stained with hematoxylin and eosin.” left out
FIG. 5C illustrate is a quantification of the transwell assay as described above. […] Cells were removed by trypsin-EDTA, counted, and resuspended at 1×10^6 cells/ml in serum-free medium. […] The inserts were then mounted on a slide cell side up and the number of cells which migrated to the bottom of the filter was determined by counting 10 high power fields at ×200 magnification. […]

retinoblastoma = conditions: 0.05 μg/d, mice; cited from earlier work
[5] = test system: retinal endothelial cells; assay: Retinal endothelial cell proliferation assay (CellTiter 96 AQueous); type: cell-based, mouse; conditions: for Relative Survival: relative to solvent control
Experimental: Primary mouse retinal endothelial cell (REC) cultures were prepared and maintained as described previously (Su X, et al., Isolation and characterization of murine retinal endothelial cells. Mol Vision. 2003;9:171-178). Briefly, REC were isolated from wild type or transgenic-immortomouse by collagenase digestion of retina and affinity purification using magnetic beads coated with platelet/endothelial cell adhesion molecule-1 (anti-PECAM-1). The bound cells were plated on fibronectin-coated wells and expanded. The REC were characterized for expression and localization of endothelial cell markers by fluorescence-activated cell sorting (FACS) analysis and indirect immuno fluorescence staining. The ability of these cells to form capillary like networks was assessed on matrigel™. For cell proliferation assays, retinal endothelial cell (10,000) were plated in triplicate in 96-well plates and incubated overnight. […] The degree of proliferation was assessed using the nonradioactive cell proliferation assay (CellTiter 96® AQueous; Promega, Madison, Wis.) as recommended by the supplier.

[6] = Toxic effect assessment: body weight of mice during OIR; conditions: mouse, in vivo
Source text: In the OIR studies, all pups had similar body weight prior to initiation of the experiment (P12) and after exposure to high oxygen (P17).

Which “retinal EC wound migration vs ethanol control” value (retinal EC [1]) does the source give for `C=C1/C(=C\C=C2/CCC[C@]3(C)[C@@H]([C@H](C)CCCC(C)(C)O)CC[C@@H]23)C[C@@H](O)C[C@@H]1O` [calcitriol, 1α,25-dihydroxyvitamin D3] here?
The value was “not significant”.

What about the “Relative Intensity of Expressed VEGF” value (VEGF; 0.025 μg (~5 μg/Kg), n = 3, P15 eye extracts, relative to β-catenin, mean ± SD, control 0.39 ± 0.08) of the same molecule?
The value was 0.37 ± 0.06 (SD).

And the “difference in VEGF expression between control and calcitriol-treated eyes” value (VEGF; 5 μg/Kg, P15 mice during OIR)?
Its value is “no significant difference”.

What about the “MEAN NUMBER OF ENDOTHELIAL NUCLEI” value ([2]; 0.025 μg (~5 μg/Kg), n = 4, mean ± SD, P17, control 39.9 ± 6.4, P < 0.001) of the same molecule?
The value was 3.8 ± 2.2 (SD).

What about the inhibition of neovascularization ([2]; 0.5 μg/Kg calcitriol, vs control) of the same molecule?
Its inhibition of neovascularization is 60%.

And the inhibition of neovascularization ([2]; 2.5 μg/Kg calcitriol, vs control)?
Its inhibition of neovascularization is 75%.

And the “inhibition of retinal neovascularization” value ([2]; 5 μg/Kg (0.025 μg) calcitriol i.p. per day P12 to P17, P17 mice, vs control)?
Its value is “greater than 90%”.

And the “capillary morphogenesis in Matrigel” value [3]?
The value was “completely inhibited; also recorded: completely abolished”.

What about the “capillary morphogenesis in Matrigel” value ([3]; listed as Calcitriol) of the same molecule?
The value was “no capillaries are observed”.

What about the “retinal EC migration through filter coated with Matrigel” value (retinal EC [4]) of the same molecule?
Its value is “no significant effect”.

What about the “retinal EC migration through filters coated with fibronectin” value (retinal EC [4]; compared to solvent control (not shown)) of the same molecule?
The value was “slightly enhanced”.

And the “decrease in retinal involvement of retinoblastoma compared to controls” value (retinoblastoma)?
The value was 50%.

What about the “Relative Survival” value ([5]; 0.25 μM calcitriol, 3 days) of the same molecule?
Its value is 108%.

What about the “Relative Survival” value ([5]; 0.50 μM calcitriol, 3 days) of the same molecule?
Its value is 111%.

And the “Relative Survival” value ([5]; 10.00 μM calcitriol, 3 days)?
The value was 111%.

And the “Relative Survival” value ([5]; 50.00 μM calcitriol, 3 days)?
The value was 87%.

And the “Relative Survival” value ([5]; 100.00 μM calcitriol, 3 days)?
The value was 12%.

And the inhibition at 100 µM ([5]; Mus musculus, Endothelial cell, 72 h, read-out: inhibition of retinal endothelial cell proliferation, 100 μM calcitriol, 3 days)?
Its inhibition at 100 µM is 90%.

And the “effect on retinal endothelial cell proliferation” value (“effect” for short) ([5]; calcitriol 0-10 μM, 9 days)?
The value was “no effect; also recorded: minimal effects”.

And the “effect” value ([5]; calcitriol 50 μM and higher)?
The value was “significant inhibition; also recorded: Significant toxicity”.

And the “effect” value ([5]; calcitriol up to 10 μM, 3 days)?
Its value is “No significant inhibition”.

What about the “effect” value ([5]; calcitriol up to 10 μM, 3 days, listed as Calcitriol) of the same molecule?
Its value is “no effect”.

And the “Body Weight” value [6]?
Its value is 5.04 ± 0.23.

What about the “mortality during OIR experiments” value [6] of the same molecule?
Its value is “None of the experimental animals died”.
